Reference: article PMC3961306, “Comparison of the Cancer Gene Targeting and Biochemical Selectivities of All Targeted Kinase Inhibitors Approved for Clinical Use” (PLoS ONE, 2014)

What was measured:
Assay in all cases: Kinase profiling in a biochemical assay panel (mobility shift assays and ELISA), %-inhibition at 1 μM; selectivity entropy
[1] = biological target: panel of more than 300 wild-type and mutant kinases (313 kinase panel) (Homo sapiens, UniProt O96013)
[2] = biological target: panel of more than 300 wild-type and mutant kinases (313 kinase panel) (Homo sapiens, UniProt P04629)
[3] = biological target: T1, panel of more than 300 wild-type and mutant kinases (313 kinase panel) (Homo sapiens, UniProt P29320); settings: kinase EPHA3; compound at 1 μM
T1 sequence (P29320 21-983): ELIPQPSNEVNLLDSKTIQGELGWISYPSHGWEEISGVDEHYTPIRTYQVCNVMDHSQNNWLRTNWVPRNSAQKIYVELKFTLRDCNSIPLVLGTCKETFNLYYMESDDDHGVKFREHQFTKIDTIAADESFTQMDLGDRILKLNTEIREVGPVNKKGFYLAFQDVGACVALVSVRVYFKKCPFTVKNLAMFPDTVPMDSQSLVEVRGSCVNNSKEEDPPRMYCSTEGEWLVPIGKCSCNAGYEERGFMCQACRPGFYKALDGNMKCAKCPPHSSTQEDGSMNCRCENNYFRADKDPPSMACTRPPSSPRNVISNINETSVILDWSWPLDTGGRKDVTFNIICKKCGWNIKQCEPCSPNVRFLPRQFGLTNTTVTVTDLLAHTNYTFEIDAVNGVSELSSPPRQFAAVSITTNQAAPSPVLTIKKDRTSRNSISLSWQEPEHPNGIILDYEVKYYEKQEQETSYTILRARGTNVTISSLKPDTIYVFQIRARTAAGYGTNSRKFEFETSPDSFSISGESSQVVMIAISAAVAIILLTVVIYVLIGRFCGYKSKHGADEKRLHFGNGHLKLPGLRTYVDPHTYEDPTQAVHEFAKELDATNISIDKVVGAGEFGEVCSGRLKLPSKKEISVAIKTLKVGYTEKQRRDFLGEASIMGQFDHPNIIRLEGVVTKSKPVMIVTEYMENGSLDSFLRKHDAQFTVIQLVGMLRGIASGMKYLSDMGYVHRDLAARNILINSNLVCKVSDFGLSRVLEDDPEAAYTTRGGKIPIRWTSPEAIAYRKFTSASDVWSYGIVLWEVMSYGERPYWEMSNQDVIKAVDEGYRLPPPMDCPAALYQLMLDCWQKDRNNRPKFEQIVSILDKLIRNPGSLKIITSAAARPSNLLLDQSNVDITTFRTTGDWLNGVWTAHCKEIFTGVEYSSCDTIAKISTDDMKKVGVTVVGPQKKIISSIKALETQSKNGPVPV

[4] = biological target: panel of more than 300 wild-type and mutant kinases (313 kinase panel) (Homo sapiens, UniProt P35916)
[5] = biological target: panel of more than 300 wild-type and mutant kinases (313 kinase panel) (Homo sapiens, UniProt P78362); settings: kinase SRPK2; 1 μM
[6] = biological target: panel of more than 300 wild-type and mutant kinases (313 kinase panel) (Homo sapiens, UniProt Q00535); settings: kinase CDK5/p25; 1 μM compound
[7] = biological target: panel of more than 300 wild-type and mutant kinases (313 kinase panel) (Homo sapiens, UniProt Q15418); settings: kinase RSK1; 1 μM
[8] = biological target: panel of more than 300 wild-type and mutant kinases (313 kinase panel) (Homo sapiens, UniProt Q16620)
[9] = biological target: panel of more than 300 wild-type and mutant kinases (313 kinase panel) (Homo sapiens, UniProt Q5VT25); settings: kinase MRCKα; 1 μM
[10] = biological target: panel of more than 300 wild-type and mutant kinases (313 kinase panel) (Homo sapiens, UniProt Q9H2X6)
[11] = biological target: panel of more than 300 wild-type and mutant kinases (313 kinase panel) (Homo sapiens, UniProt Q9HBH9); settings: kinase MNK2; 1 μM
[12] = biological target: panel of more than 300 wild-type and mutant kinases (313 kinase panel) (Homo sapiens, UniProt Q9HCP0)
[13] = biological target: panel of more than 300 wild-type and mutant kinases (313 kinase panel) (Homo sapiens, UniProt Q9Y243); settings: kinase AKT3; 1 μM compound
Sequence of panel of more than 300 wild-type and mutant kinases (313 kinase panel) (Homo sapiens, UniProt Q9Y243) (Q9Y243 whole entry, change not shown): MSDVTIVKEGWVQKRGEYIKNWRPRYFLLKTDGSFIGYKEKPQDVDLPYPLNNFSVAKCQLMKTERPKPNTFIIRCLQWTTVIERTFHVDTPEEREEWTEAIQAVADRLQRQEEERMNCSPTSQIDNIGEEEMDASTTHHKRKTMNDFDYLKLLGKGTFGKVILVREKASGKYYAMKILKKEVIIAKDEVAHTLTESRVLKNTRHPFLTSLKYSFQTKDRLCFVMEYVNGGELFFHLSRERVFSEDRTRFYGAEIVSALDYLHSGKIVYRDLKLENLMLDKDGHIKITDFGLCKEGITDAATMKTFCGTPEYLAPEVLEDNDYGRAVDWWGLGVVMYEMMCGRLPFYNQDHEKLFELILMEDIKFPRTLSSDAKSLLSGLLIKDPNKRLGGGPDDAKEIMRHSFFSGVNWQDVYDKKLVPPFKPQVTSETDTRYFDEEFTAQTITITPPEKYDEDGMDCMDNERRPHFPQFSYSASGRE

Sequence of panel of more than 300 wild-type and mutant kinases (313 kinase panel) (Homo sapiens, UniProt Q00535) (Q00535 whole entry, change not shown): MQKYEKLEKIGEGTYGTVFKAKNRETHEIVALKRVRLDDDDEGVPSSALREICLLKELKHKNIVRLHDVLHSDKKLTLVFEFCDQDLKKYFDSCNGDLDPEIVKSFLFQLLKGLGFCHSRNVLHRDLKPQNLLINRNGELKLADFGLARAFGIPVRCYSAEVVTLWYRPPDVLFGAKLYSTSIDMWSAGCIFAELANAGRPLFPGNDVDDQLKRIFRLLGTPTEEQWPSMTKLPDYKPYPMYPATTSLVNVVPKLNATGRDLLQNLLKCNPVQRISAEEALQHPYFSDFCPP

| Structure (SMILES) | %-inhibition of PAK4 ([1]; kinase PAK4, 1 μM) [%] | %-inhibition of TRKA ([2]; kinase TRKA, 1 μM) [%] | %-inhibition of EPHA3 [3] [%] | %-inhibition of FLT4 ([4]; 1 µM) [%] | %-inhibition of SRPK2 [5] [%] | %-inhibition, CDK5/p25 [6] [%] | %-inhibition of RSK1 [7] [%] | %-inhibition of TRKB ([8]; kinase TRKB, 1 μM) [%] | %-inhibition of MRCKα [9] [%] | %-inhibition of HIPK2 ([10]; 1 µM) [%] | %-inhibition of MNK2 [11] [%] | %-inhibition, CK1γ1 ([12]; kinase CK1γ1, 1 μM compound) [%] | %-inhibition, AKT3 [13] [%] | %-inhibition of FLT4 ([4]; kinase FLT4, compound at 1 μM) [%] | %-inhibition of HIPK2 ([10]; kinase HIPK2, compound at 1 μM) [%] | %-inhibition of PAK4 ([1]; 1 µM) [%] | %-inhibition of TRKA ([2]; 1 µM) [%] | %-inhibition of TRKB ([8]; 1 µM) [%] | %-inhibition, CK1γ1 ([12]; 1 µM) [%] |
| --- | --- | --- | --- | --- | --- | --- | --- | --- | --- | --- | --- | --- | --- | --- | --- | --- | --- | --- | --- |
| N#CC[C@H](C1CCCC1)n1cc(-c2ncnc3[nH]ccc23)cn1 [ruxolitinib] | 0.371 | 92 | 2 | 36 | 9 | -16 | 1.49 | 88 | 0.766 | 9 | 54 | -4 | 2 |  |  |  |  |  |  |
| CC(=O)Nc1cccc(-n2c(=O)n(C3CC3)c(=O)c3c(Nc4ccc(I)cc4F)n(C)c(=O)c(C)c32)c1 [trametinib] | -0.675 | -1.17 | -6 |  | -0.868 | 19 | -10 | -3.4 | -0.565 |  | -11 | 0.211 | -5.3 | 1.51 | 0.155 |  |  |  |  |
| CO[C@H]1C[C@@H]2CC[C@@H](C)[C@@](O)(O2)C(=O)C(=O)N2CCCC[C@H]2C(=O)O[C@H]([C@H](C)C[C@@H]2CC[C@@H](OCCO)[C@H](OC)C2)CC(=O)[C@H](C)/C=C(\C)[C@@H](O)[C@@H](OC)C(=O)[C@H](C)C[C@H](C)/C=C/C=C/C=C/1C [everolimus] | -4 | -3.53 | -20 |  | -10 | -26 | -13 | -0.542 | -6 |  | 1.88 | -2.44 | -3.39 | -0.439 | -6 |  |  |  |  |
| CNC(=O)c1cc(Oc2ccc(NC(=O)Nc3ccc(Cl)c(C(F)(F)F)c3)c(F)c2)ccn1 [regorafenib] | -15 | 90 | 80 |  | 5 | -19 | 0.165 | 74 | -5 |  | 73 | -8 | -4.23 | 104 | 78 |  |  |  |  |
| C[C@@H](Oc1cc(-c2cnn(C3CCNCC3)c2)cnc1N)c1c(Cl)ccc(F)c1Cl [crizotinib] | -5.56 | 103 | 19 |  | -2.33 | -8 | -5 | 102 | -8 |  | 2 | -3.52 | -1.83 | 48 | -6.53 |  |  |  |  |
| Cc1cn(-c2cc(NC(=O)c3ccc(C)c(Nc4nccc(-c5cccnc5)n4)c3)cc(C(F)(F)F)c2)cn1 [nilotinib] |  |  | 87 |  | -0.605 | 0.83 | 22 |  | -13 |  | 2 |  | 1.58 | 17 | 16 | -21 | 41 | 56 | -1 |
